Data: ChEMBL document CHEMBL4190368, “Synthesis and antimalarial evaluation of artesunate-polyamine and trioxolane-polyamine conjugates” (Eur J Med Chem, 2017)

What was measured:
Plasmodium falciparum [1] = assay: Antiplasmodial activity against chloroquine and pyrimethamine resistant Plasmodium falciparum K1 assessed as reduction in [3H]-hypoxanthine incorporation incubated for 48 hrs by liquid scintillation counting method; type: functional, organism-based
Plasmodium falciparum [2] = assay: Antiplasmodial activity against chloroquine sensitive Plasmodium falciparum NF54 assessed as reduction in [3H]-hypoxanthine incorporation incubated for 48 hrs by liquid scintillation counting method; type: functional, organism-based
L6 = assay: Cytotoxicity in rat L6 cells assessed as reduction in cell viability incubated for 72 hrs by alamar blue dye based assay; settings: L6, 72 h
[3] = Selectivity index, ratio of IC50 for rat L6 cells to IC50 for chloroquine and pyrimethamine resistant Plasmodium falciparum K1; type: toxicity; settings: L6 cells versus Plasmodium falciparum K1, read-out: Ratio IC50
Plasmodium berghei [4] = assay: Antiplasmodial activity against GFP-transfected Plasmodium berghei ANKA infected in NMRI mouse assessed as reduction in parasitaemia at 50 mg/kg/day, ip for 4 days measured on 24 hrs after last dose by FACS analysis; type: functional; parameters: scale not given: the % may be the effect or the level left
Plasmodium berghei [5] = assay: Antiplasmodial activity against GFP-transfected Plasmodium berghei ANKA infected in NMRI mouse assessed as mouse survival at 50 mg/kg/day, ip for 4 days measured up to 30 days; type: functional
[6] = Selectivity index, ratio of IC50 for rat L6 cells to IC50 for chloroquine sensitive Plasmodium falciparum NF54; type: toxicity; settings: L6 cells versus Plasmodium falciparum NF54, read-out: Ratio IC50

Compound | IC50 (Plasmodium falciparum [1]) | IC50 (Plasmodium falciparum [2]) | IC50 (L6) | selectivity ratio [3] | Activity (Plasmodium berghei [4]) | Survival (Plasmodium berghei [5]) | selectivity ratio [6]
O=C(O)C1CCC2(CC1)OOC1(O2)C2CC3CC(C2)CC1C3 (stereo unspecified) | 2.8 nM | 6.5 nM | 139000 nM | 49600 | – | – | –
C[C@H]1[C@H](OC(=O)CCC(=O)NCCCN(CCCCCCN(CCCNC(=O)CCC(=O)O[C@@H]2O[C@@H]3O[C@@]4(C)CC[C@H]5[C@H](C)CC[C@@H]([C@H]2C)[C@@]35OO4)C(=O)CCC(=O)O[C@@H]2O[C@@H]3O[C@@]4(C)CC[C@H]5[C@H](C)CC[C@@H]([C@H]2C)[C@@]35OO4)C(=O)CCC(=O)O[C@@H]2O[C@@H]3O[C@@]4(C)CC[C@H]5[C@H](C)CC[C@@H]([C@H]2C)[C@@]35OO4)O[C@@H]2O[C@@]3(C)CC[C@H]4[C@H](C)CC[C@@H]1[C@@]24OO3 | 0.6 nM | 0.6 nM | 880 nM | 1470 | – | – | –
C[C@H]1[C@H](OC(=O)CCC(=O)NCCCN(CCCCCCCN(CCCNC(=O)CCC(=O)O[C@@H]2O[C@@H]3O[C@@]4(C)CC[C@H]5[C@H](C)CC[C@@H]([C@H]2C)[C@@]35OO4)C(=O)CCC(=O)O[C@@H]2O[C@@H]3O[C@@]4(C)CC[C@H]5[C@H](C)CC[C@@H]([C@H]2C)[C@@]35OO4)C(=O)CCC(=O)O[C@@H]2O[C@@H]3O[C@@]4(C)CC[C@H]5[C@H](C)CC[C@@H]([C@H]2C)[C@@]35OO4)O[C@@H]2O[C@@]3(C)CC[C@H]4[C@H](C)CC[C@@H]1[C@@]24OO3 | 0.6 nM | 0.8 nM | 1240 nM | 2070 | – | – | –
O=C(NCCCN(CCCCCCCN(CCCNC(=O)C1CCC2(CC1)OOC1(O2)C2CC3CC(C2)CC1C3)C(=O)C1CCC2(CC1)OOC1(O2)C2CC3CC(C2)CC1C3)C(=O)C1CCC2(CC1)OOC1(O2)C2CC3CC(C2)CC1C3)C1CCC2(CC1)OOC1(O2)C2CC3CC(C2)CC1C3 (stereo unspecified) | 76 nM | 287 nM | > 71000 nM | > 934 | – | – | –
O=C(NCCCN(CCCCCCN(CCCNC(=O)C1CCC2(CC1)OOC1(O2)C2CC3CC(C2)CC1C3)C(=O)C1CCC2(CC1)OOC1(O2)C2CC3CC(C2)CC1C3)C(=O)C1CCC2(CC1)OOC1(O2)C2CC3CC(C2)CC1C3)C1CCC2(CC1)OOC1(O2)C2CC3CC(C2)CC1C3 (stereo unspecified) | 11 nM | 22 nM | 63200 nM | 5740 | – | – | –
CC(C)(C)OC(=O)N(CCCCCCN(CCCNC(=O)C1CCC2(CC1)OOC1(O2)C2CC3CC(C2)CC1C3)C(=O)OC(C)(C)C)CCCNC(=O)C1CCC2(CC1)OOC1(O2)C2CC3CC(C2)CC1C3 (stereo unspecified) | 5 nM | 21 nM | 59200 nM | 10800 | 79.4% | 6.7 days | –
C[C@H]1[C@H](OC(=O)CCC(=O)NCCCN(CCCCCCCCCCN(CCCNC(=O)CCC(=O)O[C@@H]2O[C@@H]3O[C@@]4(C)CC[C@H]5[C@H](C)CC[C@@H]([C@H]2C)[C@@]35OO4)C(=O)OC(C)(C)C)C(=O)OC(C)(C)C)O[C@@H]2O[C@@]3(C)CC[C@H]4[C@H](C)CC[C@@H]1[C@@]24OO3 | 0.8 nM | 0.8 nM | 500 nM | 625 | – | – | –
O=C(NCCCN(CCCCCCCCN(CCCNC(=O)C1CCC2(CC1)OOC1(O2)C2CC3CC(C2)CC1C3)C(=O)C1CCC2(CC1)OOC1(O2)C2CC3CC(C2)CC1C3)C(=O)C1CCC2(CC1)OOC1(O2)C2CC3CC(C2)CC1C3)C1CCC2(CC1)OOC1(O2)C2CC3CC(C2)CC1C3 (stereo unspecified) | 11 nM | 26 nM | 59200 nM | 5380 | – | – | –
O=C(NCCCN(CCCCN(CCCNC(=O)C1CCC2(CC1)OOC1(O2)C2CC3CC(C2)CC1C3)C(=O)C1CCC2(CC1)OOC1(O2)C2CC3CC(C2)CC1C3)C(=O)C1CCC2(CC1)OOC1(O2)C2CC3CC(C2)CC1C3)C1CCC2(CC1)OOC1(O2)C2CC3CC(C2)CC1C3 (stereo unspecified) | 6.2 nM | 98 nM | 50400 nM | 8130 | – | – | –
CC(C)(C)OC(=O)N(CCCCN(CCCNC(=O)C1CCC2(CC1)OOC1(O2)C2CC3CC(C2)CC1C3)C(=O)OC(C)(C)C)CCCNC(=O)C1CCC2(CC1)OOC1(O2)C2CC3CC(C2)CC1C3 (stereo unspecified) | 9.2 nM | 5.1 nM | 65800 nM | 7160 | 96.4% | 9.3 days | –
CC(C)(C)OC(=O)N(CCCCCCCCN(CCCNC(=O)C1CCC2(CC1)OOC1(O2)C2CC3CC(C2)CC1C3)C(=O)OC(C)(C)C)CCCNC(=O)C1CCC2(CC1)OOC1(O2)C2CC3CC(C2)CC1C3 (stereo unspecified) | 59 nM | 79 nM | 57600 nM | 976 | – | – | –
C[C@H]1[C@H](OC(=O)CCC(=O)NCCCN(CCCCCCCN(CCCNC(=O)CCC(=O)O[C@@H]2O[C@@H]3O[C@@]4(C)CC[C@H]5[C@H](C)CC[C@@H]([C@H]2C)[C@@]35OO4)C(=O)OC(C)(C)C)C(=O)OC(C)(C)C)O[C@@H]2O[C@@]3(C)CC[C@H]4[C@H](C)CC[C@@H]1[C@@]24OO3 | 0.8 nM | 0.6 nM | 970 nM | 1210 | – | – | –
CC(C)(C)OC(=O)N(CCCCCCCN(CCCNC(=O)C1CCC2(CC1)OOC1(O2)C2CC3CC(C2)CC1C3)C(=O)OC(C)(C)C)CCCNC(=O)C1CCC2(CC1)OOC1(O2)C2CC3CC(C2)CC1C3 (stereo unspecified) | 32.2 nM | 45.4 nM | > 100000 nM | > 3020 | 94.7% | 7.3 days | –
C[C@H]1[C@H](OC(=O)CCC(=O)NCCCN(CCCCN(CCCNC(=O)CCC(=O)O[C@@H]2O[C@@H]3O[C@@]4(C)CC[C@H]5[C@H](C)CC[C@@H]([C@H]2C)[C@@]35OO4)C(=O)CCC(=O)O[C@@H]2O[C@@H]3O[C@@]4(C)CC[C@H]5[C@H](C)CC[C@@H]([C@H]2C)[C@@]35OO4)C(=O)CCC(=O)O[C@@H]2O[C@@H]3O[C@@]4(C)CC[C@H]5[C@H](C)CC[C@@H]([C@H]2C)[C@@]35OO4)O[C@@H]2O[C@@]3(C)CC[C@H]4[C@H](C)CC[C@@H]1[C@@]24OO3 | – | 0.3 nM | 11200 nM | – | 95.5% | 30 days | 37300
C[C@H]1[C@H](OC(=O)CCC(=O)NCCCN(CCCCCCCCN(CCCNC(=O)CCC(=O)O[C@@H]2O[C@@H]3O[C@@]4(C)CC[C@H]5[C@H](C)CC[C@@H]([C@H]2C)[C@@]35OO4)C(=O)OC(C)(C)C)C(=O)OC(C)(C)C)O[C@@H]2O[C@@]3(C)CC[C@H]4[C@H](C)CC[C@@H]1[C@@]24OO3 | 0.8 nM | 0.7 nM | 560 nM | 700 | – | – | –
O=C(NCCCN(CCCCCCCCCCN(CCCNC(=O)C1CCC2(CC1)OOC1(O2)C2CC3CC(C2)CC1C3)C(=O)C1CCC2(CC1)OOC1(O2)C2CC3CC(C2)CC1C3)C(=O)C1CCC2(CC1)OOC1(O2)C2CC3CC(C2)CC1C3)C1CCC2(CC1)OOC1(O2)C2CC3CC(C2)CC1C3 (stereo unspecified) | 30 nM | 88 nM | > 69000 nM | > 2300 | – | – | –
C[C@H]1[C@H](OC(=O)CCC(=O)NCCCN(CCCCCCCCN(CCCNC(=O)CCC(=O)O[C@@H]2O[C@@H]3O[C@@]4(C)CC[C@H]5[C@H](C)CC[C@@H]([C@H]2C)[C@@]35OO4)C(=O)CCC(=O)O[C@@H]2O[C@@H]3O[C@@]4(C)CC[C@H]5[C@H](C)CC[C@@H]([C@H]2C)[C@@]35OO4)C(=O)CCC(=O)O[C@@H]2O[C@@H]3O[C@@]4(C)CC[C@H]5[C@H](C)CC[C@@H]([C@H]2C)[C@@]35OO4)O[C@@H]2O[C@@]3(C)CC[C@H]4[C@H](C)CC[C@@H]1[C@@]24OO3 | 0.6 nM | 0.8 nM | 900 nM | 1500 | – | – | –
C[C@H]1[C@H](OC(=O)CCC(=O)NCCCN(CCCCCCCCCCN(CCCNC(=O)CCC(=O)O[C@@H]2O[C@@H]3O[C@@]4(C)CC[C@H]5[C@H](C)CC[C@@H]([C@H]2C)[C@@]35OO4)C(=O)CCC(=O)O[C@@H]2O[C@@H]3O[C@@]4(C)CC[C@H]5[C@H](C)CC[C@@H]([C@H]2C)[C@@]35OO4)C(=O)CCC(=O)O[C@@H]2O[C@@H]3O[C@@]4(C)CC[C@H]5[C@H](C)CC[C@@H]([C@H]2C)[C@@]35OO4)O[C@@H]2O[C@@]3(C)CC[C@H]4[C@H](C)CC[C@@H]1[C@@]24OO3 | 1.1 nM | 0.6 nM | 490 nM | 445 | – | – | –
CC(C)(C)OC(=O)N(CCCCCCCCCCN(CCCNC(=O)C1CCC2(CC1)OOC1(O2)C2CC3CC(C2)CC1C3)C(=O)OC(C)(C)C)CCCNC(=O)C1CCC2(CC1)OOC1(O2)C2CC3CC(C2)CC1C3 (stereo unspecified) | 60 nM | 97 nM | 70900 nM | 1180 | – | – | –
C[C@H]1[C@H](OC(=O)CCC(=O)NCCCN(CCCCCCN(CCCNC(=O)CCC(=O)O[C@@H]2O[C@@H]3O[C@@]4(C)CC[C@H]5[C@H](C)CC[C@@H]([C@H]2C)[C@@]35OO4)C(=O)OC(C)(C)C)C(=O)OC(C)(C)C)O[C@@H]2O[C@@]3(C)CC[C@H]4[C@H](C)CC[C@@H]1[C@@]24OO3 | 0.9 nM | 0.8 nM | 660 nM | 733 | – | – | –
C[C@H]1[C@H](OC(=O)CCC(=O)O)O[C@@H]2O[C@@]3(C)CC[C@H]4[C@H](C)CC[C@@H]1[C@@]24OO3 [ARTESUNATE] | 0.5 nM | 2.6 nM | 6630 nM | 13300 | – | – | –
